# US20240247080A1, “GLP1/GIP/NPY2 RECEPTOR TRIPLE AGONISTS” (Boehringer Ingelheim International GmbH, priority 2022, published 2024)
# Where two headings read alike, the source gives them in different places. Starred links: 1 amine or outer side, 2 acyl side, 3 side chain; linkers in the order of their positions; H or OH if unused. Positions of bridges follow the written chain, without caps; N, C: chain ends. Non-standard residues stand in square brackets, D forms with d. Groups on a side chain read outwards from the residue. Chains are numbered I, II in the order given. No end group written: not given here. *: point of attachment. C20 diacid = O=C(O)CCCCCCCCCCCCCCCCCCC(=O)*; C18 diacid = O=C(O)CCCCCCCCCCCCCCCCC(=O)*; γGlu = O=C(O)[C@H](CCC(=O)[*:2])N[*:1]; εLys = N[C@@H](CCCCN[*:1])C(=O)[*:2]; β3hQ = NC(=O)CC[C@H](N)CC(=O)O; AEEA = NCCOCCOCC(=O)O; Aib = CC(C)(N)C(=O)O
# What was measured:
# Type in all cases: cell-based
# Conditions in all cases: CreLuc reporter gene assay
# hGLP1R = molecular target: T1, hGLP1R (Homo sapiens, UniProt P43220); assay: hGLP1R CreLuc reporter gene assay in 0.5% and 100% plasma
# T1 construct: expressed in transfected cells; host or cells: HEK-293 cells carrying a CRE-luciferase reporter gene
# Outline: (§1)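 Agonist EC50s came from 8-concentration curves over four decades, fitted by non-linear variable-slope regression of CRE-driven luciferase luminescence. Cells were exposed 4 h at 37 °C, in buffer with 0.5% human plasma or in 100% plasma; GIPR was expressed in CHO cells, GLP-1R and NPY2R in HEK cells.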
# hGIPR = molecular target: T2, hGIPR (Homo sapiens, UniProt P48546); assay: hGIPR CreLuc reporter gene assay in 0.5% and 100% plasma
# T2 construct: expressed in transfected cells; host or cells: CHO cells carrying a CRE-luciferase reporter gene
# T2 sequence (P48546 22-466): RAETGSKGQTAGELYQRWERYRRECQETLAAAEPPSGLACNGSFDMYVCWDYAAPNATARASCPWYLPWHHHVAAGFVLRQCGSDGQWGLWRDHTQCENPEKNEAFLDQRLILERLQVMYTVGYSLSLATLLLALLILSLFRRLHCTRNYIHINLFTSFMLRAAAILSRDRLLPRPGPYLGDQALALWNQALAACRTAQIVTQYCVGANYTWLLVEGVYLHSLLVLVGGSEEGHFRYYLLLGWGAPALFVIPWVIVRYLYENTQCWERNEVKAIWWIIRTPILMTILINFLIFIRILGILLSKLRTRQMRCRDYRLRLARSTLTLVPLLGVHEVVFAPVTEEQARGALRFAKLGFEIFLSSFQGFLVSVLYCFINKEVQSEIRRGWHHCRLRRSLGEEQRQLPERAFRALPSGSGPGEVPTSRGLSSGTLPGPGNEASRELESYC
# Outline: as §1
# hNPY2R = molecular target: T3, hNPY2R (Homo sapiens, UniProt P49146); assay: hNPY2R CreLuc reporter gene assay in 0.5% and 100% plasma
# T3 construct: expressed in transfected cells; host or cells: HEK-293 cells carrying a CRE-luciferase reporter gene
# T3 sequence (P49146 1-381): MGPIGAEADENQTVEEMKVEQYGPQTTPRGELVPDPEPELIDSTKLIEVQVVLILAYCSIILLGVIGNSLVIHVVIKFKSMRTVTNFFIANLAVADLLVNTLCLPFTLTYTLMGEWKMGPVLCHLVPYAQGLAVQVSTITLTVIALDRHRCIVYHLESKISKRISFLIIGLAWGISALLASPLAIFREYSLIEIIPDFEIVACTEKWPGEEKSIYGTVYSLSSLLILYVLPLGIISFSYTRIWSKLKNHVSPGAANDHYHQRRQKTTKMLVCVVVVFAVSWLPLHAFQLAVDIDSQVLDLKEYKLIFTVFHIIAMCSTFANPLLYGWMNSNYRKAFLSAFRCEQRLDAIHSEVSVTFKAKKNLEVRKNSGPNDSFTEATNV
# Outline: as §1
# [1] = 0.5% human plasma, read-out: hGLP1R 0.5% hP
# [2] = 0.5% human plasma, read-out: hGIPR 0.5% hP
# [3] = 100% human plasma, read-out: hGIPR 100% hP
# [4] = 100% human plasma, read-out: hNPY2R 100% hP
# [5] = 0.5% human plasma, read-out: hNPY2R 0.5% hP
# [6] = 100% human plasma, read-out: hGLP1R 100% hP
# T1 sequence (P43220 24-463): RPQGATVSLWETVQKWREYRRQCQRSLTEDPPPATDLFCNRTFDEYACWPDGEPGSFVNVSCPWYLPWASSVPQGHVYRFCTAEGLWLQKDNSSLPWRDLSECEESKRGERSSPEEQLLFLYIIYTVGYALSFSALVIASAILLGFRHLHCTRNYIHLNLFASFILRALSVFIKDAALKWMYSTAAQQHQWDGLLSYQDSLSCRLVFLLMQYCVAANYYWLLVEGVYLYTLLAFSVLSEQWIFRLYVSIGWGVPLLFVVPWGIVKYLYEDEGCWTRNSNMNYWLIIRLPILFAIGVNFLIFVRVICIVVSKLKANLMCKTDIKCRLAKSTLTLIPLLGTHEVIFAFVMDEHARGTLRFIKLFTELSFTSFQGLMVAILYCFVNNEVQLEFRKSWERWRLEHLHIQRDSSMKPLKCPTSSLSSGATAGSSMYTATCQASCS
Molecule,EC50 (hGLP1R; [1]) [nM],EC50 (hGIPR; [2]) [nM],EC50 (hGIPR; [3]) [nM],EC50 (hNPY2R; [4]) [nM],EC50 (hNPY2R; [5]) [nM],EC50 (hGLP1R; [6]) [nM]
"CC[C@H](C)[C@H](NC(=O)[C@H](CC(C)C)NC(=O)[C@H](Cc1c[nH]c2ccccc12)NC(=O)[C@H](CCC(=O)O)NC(=O)[C@@H](NC(=O)[C@H](Cc1ccccc1)NC(=O)[C@H](C)NC(=O)C(C)(C)NC(=O)[C@H](CCC(N)=O)NC(=O)[C@H](C)NC(=O)[C@H](CCC(N)=O)NC(=O)[C@H](CCCCN)NC(=O)[C@H](CCC(=O)O)NC(=O)[C@H](CC(C)C)NC(=O)C(C)(C)NC(=O)[C@@H](NC(=O)[C@H](CO)NC(=O)[C@H](Cc1ccc(O)cc1)NC(=O)[C@H](CC(=O)O)NC(=O)[C@H](CO)NC(=O)[C@@H](NC(=O)[C@H](Cc1ccccc1)NC(=O)[C@@H](NC(=O)CNC(=O)[C@H](CCC(=O)O)NC(=O)C(C)(C)NC(=O)[C@@H](N)Cc1ccc(O)cc1)[C@@H](C)O)[C@@H](C)O)[C@@H](C)CC)C(C)C)C(=O)N[C@@H](CCCCNC(=O)[C@@H](N)CCCCNC(=O)CC[C@H](NC(=O)CC[C@H](NC(=O)CC[C@H](NC(=O)CC[C@H](NC(=O)CC[C@H](NC(=O)CC[C@H](NC(=O)CCCCCCCCCCCCCCCCCCC(=O)O)C(=O)O)C(=O)O)C(=O)O)C(=O)O)C(=O)O)C(=O)O)C(=O)NCC(=O)NCC(=O)N1CCC[C@H]1C(=O)N[C@@H](CO)C(=O)N[C@@H](CO)C(=O)NCC(=O)N[C@@H](CCC(N)=O)C(=O)N[C@@H](CO)C(=O)N[C@@H](CC(C)C)C(=O)N[C@@H](CCCNC(=N)N)C(=O)N[C@@H](Cc1c[nH]cn1)C(=O)N[C@@H](Cc1ccc(O)cc1)C(=O)N[C@@H](Cc1ccc(O)cc1)C(=O)N[C@@H](CC(N)=O)C(=O)N[C@@H](Cc1c[nH]c2ccccc12)C(=O)N[C@@H](CC(C)C)C(=O)N[C@H](C(=O)N[C@@H](CCCNC(=N)N)C(=O)N[C@@H](CCC(N)=O)C(=O)N[C@@H](CCCNC(=N)N)C(=O)N[C@@H](Cc1ccc(O)cc1)C(N)=O)[C@@H](C)O [Compound 84, Y-Aib-E-G-T-F-T-S-D-Y-S-I-Aib-L-E-K-Q-A-Q-Aib-A-F-V-E-W-L-I-K(1,3)-GGPSSGQSLRHYYNWLTRQRY-NH2.C20DA-gGlu-gGlu-gGlu-gGlu-gGlu-gGlu-eLys(1,2)]",0.13,0.23,1.43,35.2,–,–
"Y[Aib]EGTFTSDYSI[Aib]LEKQAQ[Aib]AFVEWLIK([AEEA-AEEA-γGlu-γGlu-γGlu-C18 diacid])GGPSEGASLRHYYNWLTRQRY-NH2 [Compound 299, Y-Aib-E-G-T-F-T-S-D-Y-S-I-Aib-L-E-K-Q-A-Q-Aib-A-F-V-E-W-L-I-K(1,3)-GGPSEGASLRHYYNWLTRQRY-NH2.C18DA-gGlu-gGlu-gGlu-OEG-OEG(1,2)]",0.08,0.4,0.71,31.6,11,–
"H-Y[Aib]EGTFTSDYSI[Aib]LEKQAQ[Aib]AFVQWLIK([εLys-γGlu-γGlu-γGlu-γGlu-γGlu-γGlu-C20 diacid])GGPSEGASLRHYYNWLTR[β3hQ]RY-NH2 [Compound 186, Y-Aib-E-G-T-F-T-S-D-Y-S-I-Aib-L-E-K-Q-A-Q-Aib-A-F-V-Q-W-L-I-K(1,3)-G-G-P-S-E-G-A-S-L-R-H-Y-Y-N-W-L-T-R-bHGln-R-Y-NH2.C20DA-gGlu-gGlu-gGlu-gGlu-gGlu-gGlu-eLys(1,2)]",0.11,0.11,0.77,–,> 99.9,–
"H-Y[Aib]EGTFTSDYSI[Aib]LEKQAQ[Aib]AFVQWLIK([AEEA-AEEA-γGlu-γGlu-γGlu-γGlu-γGlu-C18 diacid])GGPSEPASLRHYYNWLTRQRY-NH2 [Compound 142, Y-Aib-E-G-T-F-T-S-D-Y-S-I-Aib-L-E-K-Q-A-Q-Aib-A-F-V-Q-W-L-I-K(1,3)-GGPSEPASLRHYYNWLTRQRY-NH2.C18DA-gGlu-gGlu-gGlu-gGlu-gGlu-OEG-OEG(1,2)]",0.12,0.28,1.15,28.2,13,–
"H-Y[Aib]EGTFTSDYSI[Aib]LEKQAQ[Aib]EFVQWLIK([γGlu-γGlu-γGlu-γGlu-γGlu-γGlu-C20 diacid])GGPSEGASLRHYYNWLTRQRY-NH2 [Compound 185, Y-Aib-E-G-T-F-T-S-D-Y-S-I-Aib-L-E-K-Q-A-Q-Aib-E-F-V-Q-W-L-I-K(1,3)-GGPSEGASLRHYYNWLTRQRY-NH2.C20DA-gGlu-gGlu-gGlu-gGlu-gGlu-gGlu(1,2)]",0.4,0.33,–,–,13.3,–
"H-Y[Aib]EGTFTSDYSI[Aib]LEKQAQ[Aib]AFVQWLIK([AEEA-AEEA-γGlu-γGlu-γGlu-C18 diacid])GGPEEGASLRHYYNWLTRQRY-NH2 [Compound 144, Y-Aib-E-G-T-F-T-S-D-Y-S-I-Aib-L-E-K-Q-A-Q-Aib-A-F-V-Q-W-L-I-K(1,3)-GGPEEGASLRHYYNWLTRQRY-NH2.C18DA-gGlu-gGlu-gGlu-OEG-OEG(1,2)]",0.16,1.15,0.79,48.7,15.8,–
"I: H-Y[Aib]EGTFTSDYSI[Aib]LEKQAQ[Aib]AFVQWLIKGGPSEGASLRHYYNWLTRQRY-NH2 / II: {C18 diacid}-EEEEEE (amide I:28-II:C) [Compound 264, Y-Aib-E-G-T-F-T-S-D-Y-S-I-Aib-L-E-K-Q-A-Q-Aib-A-F-V-Q-W-L-I-K(1,3)-GGPSEGASLRHYYNWLTRQRY-NH2.C18DA-E-E-E-E-E-E(1,2)]",0.11,0.28,1.82,–,16.7,3.95
"H-Y[Aib]EGTFTSDYSI[Aib]LEKQAQ[Aib]EFVEWLIK([εLys-γGlu-γGlu-γGlu-γGlu-γGlu-γGlu-C20 diacid])GGPSEGASLRHYYNWLTRQRY-NH2 [Compound 275, Y-Aib-E-G-T-F-T-S-D-Y-S-I-Aib-L-E-K-Q-A-Q-Aib-E-F-V-E-W-L-I-K(1,3)-GGPSEGASLRHYYNWLTRQRY-NH2.C20DA-gGlu-gGlu-gGlu-gGlu-gGlu-gGlu-eLys(1,2)]",0.5,0.27,1.75,–,19.9,–
"H-Y[Aib]EGTFTSDYSI[Aib]LEKQAQ[Aib]AFVQWLIK([εLys-γGlu-γGlu-γGlu-γGlu-γGlu-C18 diacid])GGPEEGASLRHYYNWLTRQRY-NH2 [Compound 143, Y-Aib-E-G-T-F-T-S-D-Y-S-I-Aib-L-E-K-Q-A-Q-Aib-A-F-V-Q-W-L-I-K(1,3)-GGPEEGASLRHYYNWLTRQRY-NH2.C18DA-gGlu-gGlu-gGlu-gGlu-gGlu-eLys(1,2)]",0.13,0.22,–,42.2,13.1,4.24
"H-Y[Aib]EGTFTSDYSI[Aib]LEKQAQ[Aib]AFVEWLIK([εLys-γGlu-γGlu-γGlu-γGlu-γGlu-γGlu-C20 diacid])GGPSSGQS[Aib]RHYYNWLTRQRY-NH2 [Compound 44, Y-Aib-E-G-T-F-T-S-D-Y-S-I-Aib-L-E-K-Q-A-Q-Aib-A-F-V-E-W-L-I-K(1,3)-G-G-P-S-S-G-Q-S-Aib-R-H-Y-Y-N-W-L-T-R-Q-R-Y-NH2.C20DA-gGlu-gGlu-gGlu-gGlu-gGlu-gGlu-eLys(1,2)]",0.07,0.05,1.14,24.5,–,2.12
"H-Y[Aib]EGTFTSDYSI[Aib]LEKQAQ[Aib]AFVEWLIK([εLys-γGlu-γGlu-γGlu-γGlu-γGlu-γGlu-C20 diacid])GGPSSGES[Aib]RHYYNWLTRQRY-NH2 [Compound 49, Y-Aib-E-G-T-F-T-S-D-Y-S-I-Aib-L-E-K-Q-A-Q-Aib-A-F-V-E-W-L-I-K(1,3)-G-G-P-S-S-G-E-S-Aib-R-H-Y-Y-N-W-L-T-R-Q-R-Y-NH2.C20DA-gGlu-gGlu-gGlu-gGlu-gGlu-gGlu-eLys(1,2)]",0.12,0.07,1.25,36.8,12.5,–
"H-Y[Aib]EGTFTSDYSI[Aib]LEKQAQ[Aib]AFVEWLIK([εLys-γGlu-γGlu-γGlu-γGlu-γGlu-γGlu-γGlu-C20 diacid])GGPSEGASLRHYYNWLTRQRY-NH2 [Compound 288, Y-Aib-E-G-T-F-T-S-D-Y-S-I-Aib-L-E-K-Q-A-Q-Aib-A-F-V-E-W-L-I-K(1,3)-GGPSEGASLRHYYNWLTRQRY-NH2.C20DA-gGlu-gGlu-gGlu-gGlu-gGlu-gGlu-gGlu-eLys(1,2)]",0.17,0.51,2.43,36.8,14.3,–
